Assays:
Format in all cases: in vivo
[1] = tested on: ducksalad (Heteranhera limosa); test: Test B flooded paddy test, visual plant response rating; conditions: 250 g ai/ha, Flood, applied to paddy water, 2-leaf stage, evaluated after 13 to 15 days
How it was run: (§1)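 Rice, umbrella sedge, ducksalad and barnyardgrass grown to 2-leaf stage; pots flooded 3 cm above soil and compound applied directly to paddy water, depth maintained.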

rice (Oryza sativa) = test: as above; conditions: 250 g ai/ha, Flood, applied to paddy water, 2-leaf stage, evaluated after 13 to 15 days
How it was run: as §1

[2] = tested on: barnyardgrass (Echinochloa crus-galli); test: as above; conditions: 250 g ai/ha, Flood, applied to paddy water, 2-leaf stage, evaluated after 13 to 15 days
How it was run: as §1

[3] = tested on: sedge, umbrella (small-flower umbrella sedge, Cyperus difformis); test: as above; conditions: 250 g ai/ha, Flood, applied to paddy water, 2-leaf stage, evaluated after 13 to 15 days
How it was run: as §1

[4] = tested on: pigweed (Amaranthus retroflexus); test: Test A postemergence, visual plant response rating; conditions: for Pigweed plant response rating (0 to 100 scale): 500 g ai/ha, postemergence, 0 is no effect, 100 is complete control; for Pigweed plant response rating: Postemergence, 125 g ai/ha, 0 to 100 scale (0 no effect, 100 complete control)
How it was run: (§2)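 Ratings use a 0–100 visual scale (100 = complete control) against untreated controls, scored about 10 days after greenhouse treatment. Test chemicals were formulated in surfactant-containing non-phytotoxic solvent and applied either as soil spray after planting (preemergence) or onto one- to two-leaf, 2–10 cm plants (postemergence).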

[5] = tested on: blackgrass (Alopecurus myosuroides); test: Test A postemergence, visual plant response rating; conditions: for Blackgrass plant response rating (0 to 100 scale): 500 g ai/ha, postemergence, 0 is no effect, 100 is complete control; for Blackgrass plant response rating: Postemergence, 125 g ai/ha, 0 to 100 scale (0 no effect, 100 complete control)
How it was run: as §2

[6] = tested on: galium (catchweed bedstraw, Galium aparine); test: Test A postemergence, visual plant response rating; conditions: for Galium plant response rating (0 to 100 scale): 500 g ai/ha, postemergence, 0 is no effect, 100 is complete control; for Galium plant response rating: Postemergence, 125 g ai/ha, 0 to 100 scale (0 no effect, 100 complete control)
How it was run: as §2

[7] = tested on: foxtail, giant (giant foxtail, Setaria faberii); test: Test A postemergence, visual plant response rating; conditions: for Foxtail, Giant plant response rating (0 to 100 scale): 500 g ai/ha, postemergence, 0 is no effect, 100 is complete control; for Foxtail, Giant plant response rating: Postemergence, 125 g ai/ha, 0 to 100 scale (0 no effect, 100 complete control)
How it was run: as §2

corn (Zea mays) = test: Test A postemergence, visual plant response rating; conditions: for Corn plant response rating (0 to 100 scale): 500 g ai/ha, postemergence, 0 is no effect, 100 is complete control; for Corn plant response rating: Postemergence, 125 g ai/ha, 0 to 100 scale (0 no effect, 100 complete control)
How it was run: as §2

[8] = tested on: Italian ryegrass (Lolium multiflorum); test: Test A postemergence, visual plant response rating; conditions: for Ryegrass, Italian plant response rating (0 to 100 scale): 500 g ai/ha, postemergence, 0 is no effect, 100 is complete control; for Ryegrass, Italian plant response rating: Postemergence, 125 g ai/ha, 0 to 100 scale (0 no effect, 100 complete control)
How it was run: as §2

[9] = tested on: wheat (Triticum aestivum); test: Test A postemergence, visual plant response rating; conditions: for Wheat plant response rating (0 to 100 scale): 500 g ai/ha, postemergence, 0 is no effect, 100 is complete control; for Wheat plant response rating: Postemergence, 125 g ai/ha, 0 to 100 scale (0 no effect, 100 complete control)
How it was run: as §2

kochia (Kochia scoparia) [10] = test: Test A postemergence, visual plant response rating; conditions: for Kochia plant response rating (0 to 100 scale): 500 g ai/ha, postemergence, 0 is no effect, 100 is complete control; for Kochia plant response rating: Postemergence, 125 g ai/ha, 0 to 100 scale (0 no effect, 100 complete control)
How it was run: as §2

[11] = tested on: barnyardgrass (Echinochloa crus-galli); test: Test A postemergence, visual plant response rating; conditions: for Barnyardgrass plant response rating (0 to 100 scale): 500 g ai/ha, postemergence, 0 is no effect, 100 is complete control; for Barnyardgrass plant response rating: Postemergence, 125 g ai/ha, 0 to 100 scale (0 no effect, 100 complete control)
How it was run: as §2

[12] = tested on: ragweed (common ragweed, Ambrosia elatior); test: Test A postemergence, visual plant response rating; conditions: for Ragweed plant response rating (0 to 100 scale): 500 g ai/ha, postemergence, 0 is no effect, 100 is complete control; for Ragweed plant response rating: Postemergence, 125 g ai/ha, 0 to 100 scale (0 no effect, 100 complete control)
How it was run: as §2

[13] = tested on: pigweed (Amaranthus retroflexus); test: Test A preemergence, visual plant response rating; conditions: for Pigweed plant response rating: 125 g ai/ha, preemergence, 0 to 100 scale, 0 no effect, 100 complete control; for Pigweed plant response rating (0 to 100 scale): 500 g ai/ha Preemergence, approx. 10 days
How it was run: as §2

[14] = tested on: foxtail, giant (giant foxtail, Setaria faberii); test: Test A preemergence, visual plant response rating; conditions: for Foxtail, Giant plant response rating: 125 g ai/ha, preemergence, 0 to 100 scale, 0 no effect, 100 complete control; for Foxtail, Giant plant response rating (0 to 100 scale): 500 g ai/ha Preemergence, approx. 10 days
How it was run: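 Greenhouse pot test in loam–sand soil mix: compound in a surfactant-containing non-phytotoxic solvent applied preemergence (directed soil spray) or postemergence (one- to two-leaf plants, 2–10 cm). Injury scored visually after ~10 days, 0–100.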

[15] = tested on: Italian ryegrass (Lolium multiflorum); test: Test A preemergence, visual plant response rating; conditions: for Ryegrass, Italian plant response rating: 125 g ai/ha, preemergence, 0 to 100 scale, 0 no effect, 100 complete control; for Ryegrass, Italian plant response rating (0 to 100 scale): 500 g ai/ha Preemergence, approx. 10 days
How it was run: as §2

kochia (Kochia scoparia) [16] = test: Test A preemergence, visual plant response rating; conditions: for Kochia plant response rating: 125 g ai/ha, preemergence, 0 to 100 scale, 0 no effect, 100 complete control; for Kochia plant response rating (0 to 100 scale): 500 g ai/ha Preemergence, approx. 10 days
How it was run: as §2

[17] = tested on: barnyardgrass (Echinochloa crus-galli); test: Test A preemergence, visual plant response rating; conditions: for Barnyardgrass plant response rating: 125 g ai/ha, preemergence, 0 to 100 scale, 0 no effect, 100 complete control; for Barnyardgrass plant response rating (0 to 100 scale): 500 g ai/ha Preemergence, approx. 10 days
How it was run: as §2

[18] = tested on: ragweed (common ragweed, Ambrosia elatior); test: Test A preemergence, visual plant response rating; conditions: for Ragweed plant response rating: 125 g ai/ha, preemergence, 0 to 100 scale, 0 no effect, 100 complete control; for Ragweed plant response rating (0 to 100 scale): 500 g ai/ha Preemergence, approx. 10 days
How it was run: as §2

SMILES | Plant response rating, Ducksalad (0 to 100 scale, 0 is no effect, 100 is complete control) [1] | Plant response rating, Rice (0 to 100 scale, 0 is no effect, 100 is complete control) (rice (Oryza sativa)) | Plant response rating, Barnyardgrass (0 to 100 scale, 0 is no effect, 100 is complete control) [2] | Plant response rating, Sedge, Umbrella (0 to 100 scale, 0 is no effect, 100 is complete control) [3] | Pigweed plant response rating (0 to 100 scale) [4] | Pigweed plant response rating [4] | Blackgrass plant response rating (0 to 100 scale) [5] | Blackgrass plant response rating [5] | Galium plant response rating (0 to 100 scale) [6] | Galium plant response rating [6] | Foxtail, Giant plant response rating (0 to 100 scale) [7] | Foxtail, Giant plant response rating [7] | Corn plant response rating (0 to 100 scale) (corn (Zea mays)) | Corn plant response rating (corn (Zea mays)) | Ryegrass, Italian plant response rating (0 to 100 scale) [8] | Ryegrass, Italian plant response rating [8] | Wheat plant response rating (0 to 100 scale) [9] | Wheat plant response rating [9] | Kochia plant response rating (0 to 100 scale) (kochia (Kochia scoparia) [10]) | Kochia plant response rating (kochia (Kochia scoparia) [10]) | other results
CCO/N=C(/c1c(O)c(C)nn(C)c1=O)c1ccc(F)c2ccccc12 [Compound 84] | 0 | 0 | 0 | 0 | 90 | 80 | 100 | 90 | 100 | 90 | 80 | 70 | 30 | 20 | 100 | 90 | 50 | 40 | 80 | 70 | Barnyardgrass plant response rating (0 to 100 scale) [11]: 80; Barnyardgrass plant response rating [11]: 60; Ragweed plant response rating (0 to 100 scale) [12]: 100; Ragweed plant response rating [12]: 90; Pigweed plant response rating [13]: 100; Pigweed plant response rating (0 to 100 scale) [13]: 100; Foxtail, Giant plant response rating [14]: 100; Foxtail, Giant plant response rating (0 to 100 scale) [14]: 100; Ryegrass, Italian plant response rating [15]: 100; Ryegrass, Italian plant response rating (0 to 100 scale) [15]: 100; Kochia plant response rating (kochia (Kochia scoparia) [16]): 20; Kochia plant response rating (0 to 100 scale) (kochia (Kochia scoparia) [16]): 60; Barnyardgrass plant response rating [17]: 60; Barnyardgrass plant response rating (0 to 100 scale) [17]: 100; Ragweed plant response rating [18]: 80; Ragweed plant response rating (0 to 100 scale) [18]: 100
CCO/N=C(\c1c(O)c(C)nn(C)c1=O)c1ccc(F)c2ccccc12 [Compound 85] | 0 | 0 | 0 | 0 | 90 | 80 | 100 | 90 | 90 | 80 | 80 | 70 | 30 | 10 | 100 | 90 | 50 | 40 | 90 | 70 | Barnyardgrass plant response rating (0 to 100 scale) [11]: 80; Barnyardgrass plant response rating [11]: 50; Ragweed plant response rating (0 to 100 scale) [12]: 100; Ragweed plant response rating [12]: 90; Pigweed plant response rating [13]: 100; Pigweed plant response rating (0 to 100 scale) [13]: 100; Foxtail, Giant plant response rating [14]: 80; Foxtail, Giant plant response rating (0 to 100 scale) [14]: 100; Ryegrass, Italian plant response rating [15]: 100; Ryegrass, Italian plant response rating (0 to 100 scale) [15]: 100; Kochia plant response rating (kochia (Kochia scoparia) [16]): 10; Kochia plant response rating (0 to 100 scale) (kochia (Kochia scoparia) [16]): 50; Barnyardgrass plant response rating [17]: 70; Barnyardgrass plant response rating (0 to 100 scale) [17]: 90; Ragweed plant response rating [18]: 90; Ragweed plant response rating (0 to 100 scale) [18]: 100
C=CCO/N=C(\c1c(O)c(C)nn(C)c1=O)c1ccc(F)c2ccccc12 [Compound 86] | 0 | 0 | 0 | 0 | 80 | 70 | 90 | 90 | 100 | 70 | 80 | 70 | 20 | 0 | 100 | 90 | 80 | 50 | 50 | 40 | Barnyardgrass plant response rating (0 to 100 scale) [11]: 80; Barnyardgrass plant response rating [11]: 50; Ragweed plant response rating (0 to 100 scale) [12]: 100; Ragweed plant response rating [12]: 100; Pigweed plant response rating [13]: 90; Pigweed plant response rating (0 to 100 scale) [13]: 100; Foxtail, Giant plant response rating [14]: 100; Foxtail, Giant plant response rating (0 to 100 scale) [14]: 100; Ryegrass, Italian plant response rating [15]: 100; Ryegrass, Italian plant response rating (0 to 100 scale) [15]: 100; Kochia plant response rating (kochia (Kochia scoparia) [16]): 20; Kochia plant response rating (0 to 100 scale) (kochia (Kochia scoparia) [16]): 30; Barnyardgrass plant response rating [17]: 90; Barnyardgrass plant response rating (0 to 100 scale) [17]: 90; Ragweed plant response rating [18]: 80; Ragweed plant response rating (0 to 100 scale) [18]: 100
C=CCO/N=C(/c1c(O)c(C)nn(C)c1=O)c1ccc(F)c2ccccc12 [Compound 87] | 0 | 0 | 0 | 0 | 90 | 70 | 90 | 80 | 100 | 80 | 80 | 70 | 30 | 0 | 100 | 80 | 60 | 40 | 70 | 40 | Barnyardgrass plant response rating (0 to 100 scale) [11]: 80; Barnyardgrass plant response rating [11]: 60; Ragweed plant response rating (0 to 100 scale) [12]: 90; Ragweed plant response rating [12]: 100; Pigweed plant response rating [13]: 30; Pigweed plant response rating (0 to 100 scale) [13]: 100; Foxtail, Giant plant response rating [14]: 90; Foxtail, Giant plant response rating (0 to 100 scale) [14]: 100; Ryegrass, Italian plant response rating [15]: 90; Ryegrass, Italian plant response rating (0 to 100 scale) [15]: 100; Kochia plant response rating (kochia (Kochia scoparia) [16]): 0; Kochia plant response rating (0 to 100 scale) (kochia (Kochia scoparia) [16]): 30; Barnyardgrass plant response rating [17]: 70; Barnyardgrass plant response rating (0 to 100 scale) [17]: 90; Ragweed plant response rating [18]: 90; Ragweed plant response rating (0 to 100 scale) [18]: 90
